Where a name gives a salt, the structure may show the parent alone.
Test system: male spontaneously hypertensive rats
Test: Decrease in systolic blood pressure in spontaneously hypertensive rats after intravenous bolus injection, indirect (tail-cuff) method
Assay type: in vivo, rat
Details: for Decrease in systolic blood pressure (mmHg) time after administration (hour) 0.5: 0.5 hour after administration; for Decrease in systolic blood pressure (mmHg) time after administration (hour) 4: 4 hours after administration
Protocol: As test animals, four male spontaneously hypertensive rats (weight 400 to 440 g) that were sufficiently adapted for feeding and in which hypertension was confirmed were used.
Physiological saline aqueous solution containing 2.5% Nicolle and 2.5% ethanol of sample was intravenously administered by bolus injection at a dose of 1 ml per 1 kg of body weight. Systolic blood pressure after administration was measured by the indirect (tail-cuff) method.

SMILES	Decrease in systolic blood pressure (mmHg) time after administration (hour) 0.5 (dose 10 mg/kg i.v. bolus) [mmHg]	Decrease in systolic blood pressure (mmHg) time after administration (hour) 4 (dose 10 mg/kg i.v. bolus) [mmHg]	Decrease in systolic blood pressure (mmHg) time after administration (hour) 0.5 (dose 3 mg/kg i.v. bolus) [mmHg]	Decrease in systolic blood pressure (mmHg) time after administration (hour) 4 (dose 3 mg/kg i.v. bolus) [mmHg]
COc1cccc(C=CCN2CCC(=C3c4ccccc4C=Cc4ccccc43)CC2)c1OC.Cl [Example 193, 4-(5H-Dibenzo[a,d]cyclohepten-5-ylidene)-1-(2-dimethoxycinnamyl)piperidine hydrochloride]	−124	−59	–	–
CCOc1ccc(C(=O)CCCN2CCC(=C3c4ccccc4C=Cc4ccccc43)CC2)cc1OCC.Cl [Example 194, 4-(4-(5H-Dibenzo[a,d]cyclohepten-5-ylidene)-1-piperidinyl)-3′,4′-diethoxybutyrophenone hydrochloride]	−59	−17	–	–
Cl.Cl.Nc1ccc(CCCCN2CCC(=C3c4ccccc4C=Cc4ccccc43)CC2)cc1 [Example 195, 1-(4-(4-Aminophenyl)butyl)-4-(5H-dibenzo[a,d]cyclohepten-5-ylidine)piperidine dihydrochloride]	−100	−51	–	–
Cl.O=[N+]([O-])c1ccc(CCCCN2CCC(=C3c4ccccc4C=Cc4ccccc43)CC2)cc1 [Example 196, 4-(5H-Dibenzo[a,d]cyclohepten-5-ylidene)-1-(4-(4-nitrophenyl)butyl)piperidine hydrochloride]	−145	−81	–	–
CC(=O)Nc1ccc(CCCCN2CCC(=C3c4ccccc4C=Cc4ccccc43)CC2)cc1.Cl.Cl [Example 197]	−51	−26	–	–
Cc1ccc(C(=O)CCCN2CCC(=C3c4ccccc4C=Cc4ccccc43)CC2)cc1C.Cl [Example 198]	−124	−25	–	–
CCOC(=O)CCCN1CCC(=C2c3ccccc3C=Cc3ccccc32)CC1.Cl [Example 199, Ethyl 4-(4-(5H-dibanzo[a,d]cyclohepten-5-ylidene)-1-piperidinyl)butyrate hydrochloride]	−15	−24	–	–
O=C(O)CCCN1CCC(=C2c3ccccc3C=Cc3ccccc32)CC1 [Example 200]	−10	−24	–	–
COc1ccc(CCCN2CCC(=C3c4ccccc4C=Cc4ccccc43)CC2)cc1OC.Cl [Example 201, 4-(5H-Dibenzo[a,d]cyclohepten-5-ylidene)-1-(-3-(3′,4′-dimethoxyphenyl)propyl)piperidine hydrochloride]	−118	−21	–	–
COc1ccc(CCC(=O)N2CCC(=C3c4ccccc4C=Cc4ccccc43)CC2)cc1OC [Example 202, 4-(5H-Dibenzo[a,d]cyclohepten-5-ylidene)-1-(3-(3′,4′-dimethoxyphenyl)propanoyl)piperidine]	−54	−16	–	–
Cl.O=C(CCCN1CCC(=C2c3ccccc3C=Cc3ccccc32)CC1)N1CCCCC1 [Example 203, 1-(4-(4-(5H-Dibenzo[a,d]cyclohepten-5-ylidene)-1-piperidinyl)butanoyl)piperidine hydrochloride]	–	–	−123	−58
Cl.O=C(CCCN1CCC(=C2c3ccccc3C=Cc3ccccc32)CC1)N1CCc2ccccc2C1 [Example 204, N-(4-(4-(5H-Dibenzo[a,d]cyclohepten-5-ylidene)-1-piperidinyl)butanoyl)-1,2,3,4-tetrahydroisoquinoline hydrochloride]	−141	−84	–	–
COc1ccc(C(O)CCCN2CCC(=C3c4ccccc4C=Cc4ccccc43)CC2)cc1OC.Cl (stereo not shown) [Example 205, 4-(4-(5H-Dibenzo[a,d]cyclohepten-5-ylidene)-1-piperidinyl)-1-(3,4-dimethoxy)phenyl-1-hydroxybutane hydrochloride]	−22	−4	–	–
CCCCC(O)(CCCN1CCC(=C2c3ccccc3C=Cc3ccccc32)CC1)c1ccc(OC)c(OC)c1.Cl (stereo not shown) [Example 207, 1-butyl-4-(4-(5H-dibenzo[a,d]cyclohepten-5-ylidene)-1-piperidinyl)-1-(3,4-dimethoxy)phenyl-1-hydroxybutane hydroxybutane hydrochloride]	−98	−43	–	–
C1=Cc2ccccc2C(=C2CCN(CCCCN3CCCCC3)CC2)c2ccccc21 [Example 209, 1-(4-(4-(5H-Dibenzo[a,d]cyclohepten-5-ylidene)-1-piperidinyl)butyl)piperidine dihydroxybutane hydrochloride]	−49	−13	–	–
C1=Cc2ccccc2C(=C2CCN(Cc3ccc4ccccc4c3)CC2)c2ccccc21.Cl [Example 212, 4-(5H-Dibenzo[a,d]cyclohepten-5-ylidene)-1-(2-naphthylmethyl)piperidine hydrochloride]	−155	–	–	–
O=C(c1cccc2ccccc12)N1CCC(=C2c3ccccc3C=Cc3ccccc32)CC1 [Example 213, 4-(5H-Dibenzo[a,d]cyclohepten-5-ylidene)-1-(1-naphthoyl)piperidine]	−82	3	–	–
C1=Cc2ccccc2C(=C2CCN(Cc3cccc4ccccc34)CC2)c2ccccc21.Cl [Example 214, 4-(5H-Dibenzo[a,d]cyclohepten-5-ylidene)-1-(1-naphthylmethyl)piperidine hydrochloride]	−126	−21	–	–
Cl.O=C1CCCCC1CCCCN1CCC(=C2c3ccccc3C=Cc3ccccc32)CC1 (stereo not shown) [Example 215, 2-(4-(4-(5H-Dibenzo[a,d]cyclohepten-5-ylidene)-1-piperidinyl)butyl)cyclohexanone hydrochloride]	−128	−14	–	–
Cl.O=C(CCCN1CCC(=C2c3ccccc3C=Cc3ccccc32)CC1)N1CCC(O)CC1 [Example 216, 1-(4-(4-(5H-Dibenzo[a,d]cyclohepten-5-ylidene)-1-piperidinyl)butanoyl)-4-hydroxypiperidine hydrochloride]	–	–	−2	−27
CCOC(=O)C1CCN(C(=O)CCCN2CCC(=C3c4ccccc4C=Cc4ccccc43)CC2)CC1.Cl [Example 217, 1-(4-(4-(5H-Dibenzo[a,d]cyclohepten-5-ylidene)-1-piperidinyl)butanoyl)-4-ethoxyxarbonpiperidine hydrochloride]	−18	−20	–	–
C1=Cc2ccccc2C(=C2CCN(CCCOC3CCCCC3)CC2)c2ccccc21.Cl [Example 218, Cyclohexyl 3-(4-(5H-Dibenzo[a,d]cyclohpetan-5-ylidene)-1-piperidinyl)propylether hydrochloride]	−97	−11	–	–
COC(=O)C1(CCCCN2CCC(=C3c4ccccc4C=Cc4ccccc43)CC2)CCCCC1.Cl [Example 219, 1-(4-(4-(5H-Dibenzo[a,d]cyclohepten-5-ylidene)-1-piperidinyl)-butyl)-1-methoxycarbonylcyclohexane hydrochloride]	−104	−33	–	–
CCOC(=O)C(CCCN1CCC(=C2c3ccccc3C=Cc3ccccc32)CC1)C1CCCCC1.Cl (stereo not shown) [Example 220, Ethyl 2-cyclohexyl-5-(4-(5H-Dibenzo[a,d]cyclohepten-5-ylidene)-1-piperidinyl)valerate hydrochloride]	−148	−54	–	–
COc1ccc(CCCCN2CCC(=C3c4ccccc4C=Cc4ccccc43)CC2)cc1OC.Cl [Example 221, 4-(5H-Dibenzo[a,d]cyclohepten-5-ylidene)-1-(4-(3′,4′-dimethoxyphenyl)butyl)piperidine hydrochloride]	−70	−13	–	–
COc1ccc(C2(CCCN3CCC(=C4c5ccccc5C=Cc5ccccc54)CC3)OCCO2)cc1OC.Cl [Example 222]	−94	−5	–	–
O=C(C1CCc2ccccc2C1)N1CCC(=C2c3ccccc3C=Cc3ccccc32)CC1 (stereo not shown) [Example 224, 4-(5H-Dibenzo[a,d]cyclohepten-5-ylidene)-1-(1,2,3,4-tetrahydro-2-naphthoyl)piperidine]	−69	−61	–	–
C1=Cc2ccccc2C(=C2CCN(CC3CCc4ccccc4C3)CC2)c2ccccc21 (stereo not shown) [Example 225, 4-(5H-Dibenzo[a,d]cyclohepten-5-ylidene)-1-(1,2,3,4-tetrahydro-2-naphthylmethyl)piperidine]	−115	−31	–	–

Reference: USRE38257E1, “Piperdine derivatives and hypotensives containing the same” (Ajinomoto Co., Inc., priority 1988, dated 2003)
